Experimental findings from paper PMC8391922, “The Combined Effect of Branching and Elongation on the Bioactivity Profile of Phytocannabinoids. Part I: Thermo-TRPs” (Biomedicines, 2021) are described below.

Like-named read-outs stand apart in the source and are kept apart here.

Common to all, as to assay type: cell-based
Assay [1] deals with T1, rat TRPA1 (Rattus norvegicus, UniProt Q6RI86).
T1 construct: expressed in transfected cells; host or cells: HEK-293
The assay can be described thus: TRPA1-mediated elevation of intracellular Ca2+ (Fluo-4) in transfected HEK-293 cells. Particulars: for TRPA1 Efficacy (%ITC 100 μM): percentage of the effect of 100 μM allylisothiocyanate on [Ca2+]i. As for the experimental part: (§1) Assays of rat TRPA1, TRPV2, TRPV3, TRPV4, and TRPM8 or human TRPV1 mediated elevation of intracellular Ca ^2+ in transfected HEK-293 cells were performed with a continuous monitoring of [Ca ^2+]i during the experiments. […] Cell fluorescence before and after the addition of various concentrations of test compounds was measured, normalizing the effects against the response to ionomycin (IM, 4 μM). The values of the effect on [Ca^2+]i in HEK-293 cells not transfected were used as baseline and subtracted from the values obtained from transfected cells. For TRPA1, agonist efficacy was expressed as a percentage of the effect on [Ca ^2+]i observed with 100 μM allylisothiocyanate. […] In the TRPV3 assay, TRPV3-expressing HEK293 cells were first sensitized with the structurally unrelated agonist 2-aminoethoxydiphenyl borate (100 μM). Antagonist/desensitizing behavior is evaluated against the agonist of the TRP analyzed by adding the compounds directly in the quartz cuvette 5 min before stimulation of cells with the agonist. […] Dose-response curve fitting (sigmoidal dose-response variable slope) and parameter estimation were performed with Graph-Pad Prism8 (GraphPad Software Inc., San Diego, CA, USA). All determinations were performed at least in triplicate.

Assay [2] has as its target T2, rat TRPV2 (Rattus norvegicus, UniProt Q9WUD2).
T2 construct: expressed in transfected cells; host or cells: HEK-293
T2 sequence (Q9WUD2 1-761): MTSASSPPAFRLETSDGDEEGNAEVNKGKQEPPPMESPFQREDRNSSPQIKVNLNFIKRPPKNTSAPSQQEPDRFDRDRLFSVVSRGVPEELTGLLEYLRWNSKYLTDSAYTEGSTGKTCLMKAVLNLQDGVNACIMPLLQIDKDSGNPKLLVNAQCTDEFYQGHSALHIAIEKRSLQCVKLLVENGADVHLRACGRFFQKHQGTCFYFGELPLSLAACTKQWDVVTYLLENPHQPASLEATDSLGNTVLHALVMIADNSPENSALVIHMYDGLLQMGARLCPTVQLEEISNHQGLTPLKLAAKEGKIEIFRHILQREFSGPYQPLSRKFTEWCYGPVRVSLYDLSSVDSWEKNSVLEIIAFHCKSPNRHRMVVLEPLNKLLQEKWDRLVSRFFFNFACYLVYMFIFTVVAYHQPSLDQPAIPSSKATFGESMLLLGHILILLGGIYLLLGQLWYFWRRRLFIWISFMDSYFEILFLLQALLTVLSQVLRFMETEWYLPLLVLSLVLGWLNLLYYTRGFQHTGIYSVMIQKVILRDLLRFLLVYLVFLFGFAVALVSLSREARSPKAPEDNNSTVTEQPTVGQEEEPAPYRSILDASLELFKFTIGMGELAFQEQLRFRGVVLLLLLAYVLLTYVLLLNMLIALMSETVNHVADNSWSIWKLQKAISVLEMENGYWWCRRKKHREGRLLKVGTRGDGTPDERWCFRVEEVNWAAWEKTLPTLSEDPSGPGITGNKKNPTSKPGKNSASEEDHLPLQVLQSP
The assay is described as follows: TRPV2-mediated elevation of intracellular Ca2+ (Fluo-4) in transfected HEK-293 cells. Particulars: for IC50: compound added 5 min before agonist CBD 2 μM; for TRPV2 Efficacy (% IM 4 μM): percentage of the response to ionomycin 4 μM, HEK-293. As for the experimental part: as §1

For assay [3], the target named is T3, rat TRPV4 (Rattus norvegicus, UniProt Q9ERZ8).
T3 construct: expressed in transfected cells; host or cells: HEK-293
T3 sequence (Q9ERZ8 whole entry): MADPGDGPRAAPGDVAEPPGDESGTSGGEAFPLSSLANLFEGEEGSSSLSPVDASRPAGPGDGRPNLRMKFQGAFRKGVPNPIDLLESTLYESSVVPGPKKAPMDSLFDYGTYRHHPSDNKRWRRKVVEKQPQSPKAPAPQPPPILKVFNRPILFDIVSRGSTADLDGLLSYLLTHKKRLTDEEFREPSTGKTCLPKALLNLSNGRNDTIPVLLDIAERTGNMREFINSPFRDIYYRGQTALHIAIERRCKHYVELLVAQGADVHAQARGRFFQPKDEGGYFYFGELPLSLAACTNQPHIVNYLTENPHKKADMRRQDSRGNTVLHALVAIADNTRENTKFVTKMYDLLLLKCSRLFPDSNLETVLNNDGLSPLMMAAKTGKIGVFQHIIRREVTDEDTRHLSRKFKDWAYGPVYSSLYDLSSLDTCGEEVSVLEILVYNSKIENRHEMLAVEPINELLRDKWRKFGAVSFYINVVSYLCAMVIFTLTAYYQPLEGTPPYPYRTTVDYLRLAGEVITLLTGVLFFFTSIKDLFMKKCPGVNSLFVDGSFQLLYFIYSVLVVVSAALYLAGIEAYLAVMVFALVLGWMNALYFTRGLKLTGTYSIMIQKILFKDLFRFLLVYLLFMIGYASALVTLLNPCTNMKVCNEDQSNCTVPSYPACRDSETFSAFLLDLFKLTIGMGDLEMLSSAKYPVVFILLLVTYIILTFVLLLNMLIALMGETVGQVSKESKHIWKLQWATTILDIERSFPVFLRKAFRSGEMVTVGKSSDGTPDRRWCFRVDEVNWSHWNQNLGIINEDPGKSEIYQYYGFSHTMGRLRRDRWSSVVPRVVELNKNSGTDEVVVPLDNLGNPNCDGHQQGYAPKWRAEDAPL
The assay is described as follows: TRPV4-mediated elevation of intracellular Ca2+ (Fluo-4) in transfected HEK-293 cells. Particulars: for TRPV4 Efficacy (% IM 4 μM): percentage of the response to ionomycin 4 μM. Here is the method:
as §1

The mark [4] stands for this setting: antagonist/desensitizing, compound added 5 min before agonist AITC 100 μM, read-out: IC50 TRPA1.
[5] abbreviates: half-maximal increase in [Ca2+]i, HEK-293, read-out: TRPA1 Potency EC50.
[6] abbreviates: antagonist/desensitizing, read-out: IC50 TRPV2.
[7] abbreviates: antagonist/desensitizing, compound added 5 min before agonist GSK1016790A 10 nM, read-out: IC50 TRPV4.
[8] abbreviates: IC50 TRPV2, antagonist/desensitizing.

T1 sequence (Q6RI86 whole entry): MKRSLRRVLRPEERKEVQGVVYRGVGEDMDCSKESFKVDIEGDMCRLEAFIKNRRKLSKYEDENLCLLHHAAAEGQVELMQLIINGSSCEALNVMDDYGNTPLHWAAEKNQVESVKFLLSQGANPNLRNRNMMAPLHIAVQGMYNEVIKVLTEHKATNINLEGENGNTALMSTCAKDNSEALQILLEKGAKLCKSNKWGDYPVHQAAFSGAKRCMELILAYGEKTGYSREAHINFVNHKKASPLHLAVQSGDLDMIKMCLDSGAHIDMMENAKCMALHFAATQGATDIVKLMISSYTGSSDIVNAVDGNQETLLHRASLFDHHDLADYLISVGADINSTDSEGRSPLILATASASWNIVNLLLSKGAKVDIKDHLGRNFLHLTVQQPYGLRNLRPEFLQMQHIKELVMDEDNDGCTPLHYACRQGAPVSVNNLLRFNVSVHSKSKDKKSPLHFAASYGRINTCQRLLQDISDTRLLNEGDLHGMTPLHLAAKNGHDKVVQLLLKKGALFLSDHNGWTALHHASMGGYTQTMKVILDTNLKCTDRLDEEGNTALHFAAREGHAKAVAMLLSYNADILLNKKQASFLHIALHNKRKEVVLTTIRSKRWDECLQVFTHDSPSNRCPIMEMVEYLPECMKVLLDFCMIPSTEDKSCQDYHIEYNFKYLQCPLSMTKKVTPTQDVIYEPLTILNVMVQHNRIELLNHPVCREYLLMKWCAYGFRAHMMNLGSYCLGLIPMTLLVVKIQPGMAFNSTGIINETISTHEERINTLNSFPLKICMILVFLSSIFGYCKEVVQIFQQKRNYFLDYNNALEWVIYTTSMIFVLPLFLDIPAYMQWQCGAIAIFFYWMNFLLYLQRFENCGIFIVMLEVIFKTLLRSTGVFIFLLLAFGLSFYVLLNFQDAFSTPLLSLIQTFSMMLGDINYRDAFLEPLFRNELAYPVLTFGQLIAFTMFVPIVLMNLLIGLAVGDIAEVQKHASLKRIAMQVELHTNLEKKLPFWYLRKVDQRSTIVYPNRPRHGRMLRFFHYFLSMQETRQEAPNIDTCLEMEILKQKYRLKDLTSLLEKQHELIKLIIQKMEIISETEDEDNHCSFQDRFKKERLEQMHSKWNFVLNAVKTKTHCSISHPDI

As usually defined, the IC50 is the concentration needed to halve the response being measured. The term EC50 denotes the concentration that produces a half-maximal response. For the compound `C=C(C)[C@@H]1CCC(C)=C[C@H]1c1c(O)cc(C(C)(C)CCCCCC)cc1O` [1b, Depentyl-α,α-dimethylheptyl-cannabidiol], the figures for the IC50 in assay [1] (setting [4]), in assay [2] (setting [6]) and in assay [3] (setting [7]) were 0.51 ± 0.03 µM, 16.8 ± 0.2 µM and over 100 µM, respectively. Further, the EC50 in assay [1] (setting [5]) turned out to be 0.4 ± 0.15 µM. The “TRPA1 Efficacy (%ITC 100 μM)” value in assay [1] (HEK-293) turned out to be 133.4 ± 5.3%. Further, the “TRPV2 Efficacy (% IM 4 μM)” value in assay [2] is under 10%. In addition, the “TRPV4 Efficacy (% IM 4 μM)” value in assay [3] (HEK-293) stood at 34.0 ± 1.3%.

As to `CCCCCCCc1cc(O)c2c(c1)OC(C)(CCC=C(C)C)C=C2` (centres unmarked) [8c, Depentyl-5-n-heptylcannabichromene], the half-maximal inhibitory concentration (IC50) in assay [1] (setting [4]) was 3.8 ± 0.35 µM; in assay [2] (setting [6]), 9 ± 0.8 µM; in assay [3] (setting [7]), over 100 µM. For the same compound, in assay [1] (setting [5]), the EC50 came out at 1.2 ± 0.2 µM. The “TRPA1 Efficacy (%ITC 100 μM)” value in assay [1] (HEK-293) was found to be 97.8 ± 3.3%. For the same compound, the “TRPV2 Efficacy (% IM 4 μM)” value in assay [2] was under 10%. Moreover, the “TRPV4 Efficacy (% IM 4 μM)” value in assay [3] (HEK-293) is recorded as under 10%.

On to `CCCCC(C)(C)c1cc(O)c2c(c1)OC(C)(CCC=C(C)C)C=C2` (stereo not drawn) [8d, Depentyl-5-α,α-dimethylpentylcannabichromene], for which the IC50 in assay [1] (setting [4]) was 0.4 ± 0.01 µM; in assay [2] (setting [6]), 13.3 ± 1.1 µM; in assay [3] (setting [7]), over 100 µM. Moreover, the EC50 in assay [1] (setting [5]) was 0.15 ± 0.03 µM. Besides, the “TRPA1 Efficacy (%ITC 100 μM)” value in assay [1] (HEK-293) is 98.7 ± 1.9%. For the same compound, the “TRPV2 Efficacy (% IM 4 μM)” value in assay [2] was under 10%. The “TRPV4 Efficacy (% IM 4 μM)” value in assay [3] (HEK-293) was under 10%.

As for `CCCCCCC(C)(C)c1cc(O)c2c(c1)OC(C)(CCC=C(C)C)C=C2` (stereo not drawn) [8b, Depentyl-α,α-dimethylheptyl-cannabichromene], the EC50 in assay [1] is 0.76 ± 0.12 µM; in assay [2] it was over 50 µM. Moreover, the IC50 in assay [1] was 0.32 ± 0.01 µM; in assay [2] (setting [8]), 22.6 ± 0.2 µM; in assay [3], over 100 µM. Besides, in assay [1] (HEK-293), the “TRPA1 Efficacy (%ITC 100 μM)” value worked out at 120.4 ± 2.8%. Moreover, the “TRPV2 Efficacy (% IM 4 μM)” value in assay [2] is listed as 76.1 ± 0.6%. For the same compound, the “TRPV4 Efficacy (% IM 4 μM)” value in assay [3] (HEK-293) was under 10%.

Consider `CCCCCCC(C)(C)c1cc(O)c(C/C=C(\C)CCC=C(C)C)c(O)c1` [7b, Depentyl-α,α-dimethylheptyl-cannabigerol], for which the results for the IC50 in assay [1] (setting [4]), in assay [2] (setting [8]) and in assay [3] (setting [7]) were 1.7 ± 0.15 µM, 39.4 ± 4.5 µM and 35.4 ± 3.2 µM, respectively. The half-maximal effective concentration (EC50) in assay [1] (setting [5]) came out at 9.1 ± 2 µM; in assay [2], 9.8 ± 0.6 µM; in assay [3] (half-maximal increase in [Ca2+]i, HEK-293, read-out: TRPV4 Potency EC50), 39 ± 21.6 µM. Also, in assay [1] (HEK-293), the “TRPA1 Efficacy (%ITC 100 μM)” value is recorded as 99.2 ± 4.5%. In addition, in assay [2], the “TRPV2 Efficacy (% IM 4 μM)” value was 65.3 ± 0.7%. In addition, the “TRPV4 Efficacy (% IM 4 μM)” value in assay [3] (HEK-293) was determined as 34.4 ± 5.2%.
